We go through twelve compounds from patent US8394765B2, “Methods of treating obesity with two different anti-obesity agents” (Amylin Pharmaceuticals LLC, priority 2004, dated 2013).

Data set [1] can be described thus: DIO rats, amylin and phentermine, body weight and body composition (Example 4). In kind it is in vivo, rat. Here is the method: The combination of amylin and catecholaminergic agonist, phentermine, were also tested for effects on changes in body weight and body composition. Phentermine is classically referred to as a catecholaminergic agonist as it actually hits NA/5-HT receptors. DIO male rats were fattened and divided into four treatment groups, as described above. Each group was implanted with subcutaneous osmotic mini-pumps and/or inserted with an oral gavage, designed to deliver vehicle, phentermine (10 mg/kg/day), amylin (100 μg/kg/day) or phentermine (10 mg/kg/day)+amylin (100 μg/kg/day) for a 14 day period. The mini-pump contained either vehicle (50% DMSO in water) or amylin while the oral gavage administered either sterile water or phentermine. Body weight was recorded daily and body composition was measured prior to and after drug treatment using NMR.

The nature of data set [2]: 24-week randomized, double-blind, active-drug-controlled study of pramlintide and metreleptin in overweight and obese subjects (Example 8). The format is in vivo, human. Here is the method: To evaluate inter alia the safety, tolerability and effect of the combination of an amylin agonist (pramlintide) and a leptin (metreleptin) on changes in body weight, a 24-week, randomized, double-blind, active-drug-controlled, multicenter study was conducted under USFDA approved protocols. Secondary objectives of the study were the determination of the pharmacokinetics of pramlintide and leptin, waist circumference, rate of change in body weight, and patient reported outcomes including for example without limitation perception of well-being related to weight change and mood. The study enrolled overweight and obese subjects with defined BMI ([…]), with enrollment statistics as provided in Table 2. […] Subjects treated with pramlintide/metreleptin lost an average of 25 pounds from the start of the 24-week study compared with an average of 17 pounds for subjects treated with pramlintide alone.
In an initial lead-in phase, all subjects received dietary instructions and treatment with pramlintide at 180 mcg BID for two weeks, followed by pramlintide at 360 mcg BID for two weeks. Subjects who completed the 4-week lead-in period and who lost 2-8 percent body weight during this period were eligible to continue the study. The term “enrolled” (Table 2) refers to subjects (N=177) receiving at least one dose of pramlintide during the lead-in period. The term “non-randomized” refers to subjects not continuing in the study past the lead-in period. The term “evaluable” refers to subjects who completed Visit 9 (Week 16) study procedures and adequately complied with the study protocol.
After the 4-week lead-in period, for the remaining 20 weeks of the study the subjects were randomized in a 2:2:1 ratio to one of three groups with BID treatment of 1) pramlintide 360 mcg/metreleptin 5 mg (“Leptin+Pramlintide”); 2) pramlintide 360 mcg/placebo (“Pramlintide”); or 3) metreleptin 5 mg/placebo (“Leptin”).

Data set [3] can be described thus: DIO (Levin) rats, amylin and CB-1 antagonist rimonabant, body weight and body composition (Example 5). In kind it is in vivo, rat. As for the experimental part:
These rats were developed by Barry Levin from a line of Crl:CD®(SD)BR rats that are prone to become obese on a diet relatively high in fat and energy. They were housed individually in shoebox cages at 22 C in a 12/12-hour light dark cycle. […] Rats were habituated to oral gavage for 1 week prior to treatment. Rimonabant was administered at a range of doses (0.1, 0.3, 1.0, 3.0. 10 mg/kg/day) by oral gavage. Amylin (dissolved in 50% DMSO sterile water) or vehicle was administered by mini-pump (100 μg/kg/day). Rimonabant was always delivered just prior to lights out. Food intake and body weight were measured at 1 and 2 weeks post-treatment. Body composition was measured prior to and after drug treatment using NMR (Echo Medical Systems, Houston, Tex.). For body composition measurements, rats were briefly placed (˜1 min) in a well-ventilated plexiglass tube that was then inserted into a specialized rodent NMR machine. Rats were scanned prior to pump implantation and on the final day of the experiment. This enabled the calculation of changes in actual grams of fat and dry lean tissue (e.g., grams of body fat after treatment−grams of body fat at baseline=change in grams of body fat) and changes in % body composition for fat and dry lean tissue (e.g., % body fat after treatment−% body fat at baseline=change in % body fat).

Data set [4] in a line: DIO rats, amylin and sibutramine, body weight and body composition (Example 4). The format is in vivo, rat. Here is the method: Rat amylin was dissolved in 50% DMSO in sterile water and sibutramine was dissolved in sterile water. Each group was implanted with subcutaneous osmotic mini-pumps designed to deliver vehicle, sibutramine (3 mg/kg/day) or amylin (100 μg/kg/day) for a 14 day period. Body weight and food intake were recorded daily. Body composition was measured prior to and after drug treatment using NMR (Echo Medical Systems, Houston, Tex.). For body composition measurements, rats were briefly placed (˜1 min) in a well-ventilated plexiglass tube that was then inserted into a specialized rodent NMR machine. Rats were scanned prior to pump implantation and on the final day of the experiment. This enabled the calculation of changes in actual grams of fat and dry lean tissue (e.g., grams of body fat after treatment−grams of body fat at baseline=change in grams of body fat) and changes in % body composition for fat and dry lean tissue (e.g., % body fat after treatment−% body fat at baseline=change in % body fat).

Data set [5] in a line: DIO rats, amylin and PYY(3-36), body weight and body composition (Example 7). The format is in vivo, rat. Here is the method:
Each group was implanted with subcutaneous osmotic mini-pumps, designed to deliver vehicle, PYY(3-36) (1000 μg/kg/day), amylin (100 μg/kg/day) or PYY(3-36) (1000 μg/kg/day)+amylin (100 μg/kg/day) for a 14 day period. PYY(3-36) was administered by mini-pump at a range of doses (100, 200, 400, 800, 1000 μg/kg/day). Amylin 100 μg/kg/day (dissolved in 50% DMSO sterile water), PYY(3-36) (dissolved in 50% DMSO sterile water) or vehicle was administered by mini-pump. Food intake and body weight was recorded daily. Body composition was measured prior to and after drug treatment using NMR (Echo Medical Systems, Houston, Tex.). For body composition measurements, rats were briefly placed (˜1 min) in a well-ventilated plexiglass tube that was then inserted into a specialized rodent NMR machine. Rats were scanned prior to pump implantation and on the final day of the experiment. This enabled the calculation of changes in actual grams of fat and dry lean tissue (e.g., grams of body fat after treatment−grams of body fat at baseline […]) and changes in % body composition for fat and dry lean tissue (e.g., % body fat after treatment−% body fat at baseline=change in % body fat).

Data set [6] is described as follows: DIO rats, amylin and exendin-4 analog, body weight and body composition (Example 6). The format is in vivo, rat. Here is the method:
[…]. Prior to drug administration rats had typically attained a mean body weight of 500 g Exendin-4 analog was administered by minipump at a range of doses (0.3, 1, 3, 10, 30 μg/kg/day). Amylin (dissolved in 50% DMSO in water) or vehicle was administered by mini-pump (100 μg/kg/day). Body weight and food intake was recorded daily. Body composition was measured prior to and after drug treatment using NMR (Echo Medical Systems, Houston, Tex.). For body composition measurements, rats were briefly placed (˜1 min) in a well-ventilated plexiglass tube that was then inserted into a specialized rodent NMR machine. Rats were scanned prior to pump implantation and on the final day of the experiment. This enabled the calculation of changes in actual grams of fat and dry lean tissue (e.g., grams of body fat after treatment−grams of body fat at baseline=change in grams of body fat) and changes in % body composition for fat and dry lean tissue (e.g., % body fat after treatment−% body fat at baseline=change in % body fat).

For data set [7] the following is noted: treated test animals; e.g. provoking marked hyperlactemia followed by hyperglycemia; cited from earlier work.
The conditions of data set [8]: compared to human amylin; cited from earlier work.
The mark [9] stands for this setting: 4-week pramlintide lead-in, arm of later randomization.

Consider `CC(C)(N)Cc1ccccc1` [phentermine], for which the “changes in body fat (fat mass)” value in data set [1] (after two weeks, FIG. 11B) is given as “modest amount of fat mass loss”. In addition, the “changes in body protein (lean mass)” value in data set [1] (after two weeks, FIG. 11C) is given as “unchanged or tended to be lost”. Besides, the “vehicle-corrected decrease in percent body weight” value in data set [1] (two weeks, phentermine 10 mg/kg/day oral gavage, amylin 100 μg/kg/day, FIG. 11A) is listed as around 5%.
On to `CC[C@H](C)[C@H](NC(=O)[C@@H]1CCCN1C(=O)CNC(=O)[C@H](Cc1ccccc1)NC(=O)[C@H](CC(N)=O)NC(=O)[C@H](CC(N)=O)NC(=O)[C@H](CO)NC(=O)[C@H](CO)NC(=O)[C@H](Cc1c[nH]cn1)NC(=O)[C@@H](NC(=O)[C@H](CC(C)C)NC(=O)[C@H](Cc1ccccc1)NC(=O)[C@H](CC(N)=O)NC(=O)[C@H](C)NC(=O)[C@H](CC(C)C)NC(=O)[C@H](CCCNC(=N)N)NC(=O)[C@H](CCC(N)=O)NC(=O)[C@@H](NC(=O)[C@H](C)NC(=O)[C@@H]1CSSC[C@H](NC(=O)[C@@H](N)CCCCN)C(=O)N[C@@H](CC(N)=O)C(=O)N[C@@H]([C@@H](C)O)C(=O)N[C@@H](C)C(=O)N[C@@H]([C@@H](C)O)C(=O)N1)[C@@H](C)O)C(C)C)C(=O)N[C@@H](CC(C)C)C(=O)N1CCC[C@H]1C(=O)N1CCC[C@H]1C(=O)N[C@H](C(=O)N[C@@H](CC(N)=O)C(=O)N[C@H](C(=O)NCC(=O)N[C@@H](CO)C(=O)N[C@@H](CC(N)=O)C(=O)N[C@H](C(=O)N[C@@H](Cc1ccc(O)cc1)C(N)=O)[C@@H](C)O)C(C)C)[C@@H](C)O` [pramlintide], for which the “rate of change in body weight, early rate” value in data set [2] (0-12 weeks, evaluable population, FIG. 24) was −0.23±0.04 kg/week. The “Mean Change in Body Weight” value in data set [2] (4-week lead-in period in which all subjects received pramlintide (180 then 360 mcg BID), arm of later randomization) was -3.65 kg. In data set [2] (setting [9]), the “% Weight Loss During Lead-in <5% (share of subjects)” value is reported as 77% and the “% Weight Loss During Lead-in ≧5% (share of subjects)” value is listed as 23%. In data set [2] (12-20 weeks, evaluable population, FIG. 24), the “rate of change in body weight, late rate” value was −0.02±0.04 kg/week. In addition, the “weight reduction effect toward the end of the study (late rate, in words)” value in data set [2] (12-20 weeks, FIG. 24) is listed as “approached a late rate of zero”. The “course of weight loss towards the end of the study” value in data set [2] (human subjects, 24-week study) was “weight had stabilized towards the end of the 24-week study”. In addition, the “body weight reduction on average” value in data set [2] (human subjects, end of 24-week study, pramlintide 360 mcg BID, metreleptin 5 mg BID, p<0.001) is 8.4%. The “average weight lost from the start of the 24-week study” value in data set [2] (human subjects, pramlintide 360 mcg BID, metreleptin 5 mg BID) is listed as 17 pounds.
Regarding `Cc1c(C(=O)NN2CCCCC2)nn(-c2ccc(Cl)cc2Cl)c1-c1ccc(Cl)cc1` [rimonabant], the “changes in body fat (fat mass)” value in data set [3] (after two weeks, FIG. 12B) is recorded as “Fat mass loss was evident”. Moreover, in data set [3] (after two weeks, FIG. 12C), the “changes in body protein (lean mass)” value is recorded as “relatively equivalent increase in lean (protein) mass”. For the same compound, the “vehicle-corrected decrease in percent body weight” value in data set [3] (two weeks, rimonabant 3 mg/kg/day oral gavage, amylin 100 μg/kg/day, FIG. 12A) is around 4%.
As for `CC(C)CC(N(C)C)C1(c2ccc(Cl)cc2)CCC1` (stereo not drawn) [sibutramine], in data set [4] (after two weeks, FIG. 10B), the “changes in body fat (fat mass)” value is “Fat mass loss was evident”. Moreover, in data set [4] (after two weeks, FIG. 10C), the “changes in body protein (lean mass)” value was “relatively unchanged”. The “vehicle-corrected decrease in percent body weight” value in data set [4] (two weeks, sibutramine 3 mg/kg/day, amylin 100 μg/kg/day, FIG. 10A) is around 6%.
Regarding PYY(3-36), the “changes in body fat (fat mass loss)” value in data set [5] (after two weeks, order PYY(3-36) alone, amylin alone, combination, FIG. 16B) is listed as “Increasing amount of fat mass loss”. Further, the “vehicle-corrected decrease in percent body weight” value in data set [5] (two weeks, PYY(3-36) 1000 μg/kg/day, amylin 100 μg/kg/day, FIG. 16A) is around 9%.
With ^14Leu-exendin-4 [Exendin-4 analog], the “changes in body fat (fat mass)” value in data set [6] (after two weeks, FIG. 15B) was “Fat mass loss was evident”. Besides, the “changes in body protein (lean mass)” value in data set [6] (after two weeks, FIG. 15C) is given as “relatively equivalent increase in lean (protein) mass”. Besides, the “vehicle-corrected decrease in percent body weight” value in data set [6] (two weeks, exendin-4 analog 10 μg/kg/day, amylin 100 μg/kg/day, FIG. 15A) was around 6%.
For “^18Arg^25,28Pro-h-amylin (KCNTATCATQRLANFLVRSSNNFGPILPSTNVGSNTY)”, the “amylin activity in vivo” value in data set [7] is “show amylin activity in vivo”. Further, in data set [8], the “solubility and stability characteristics” value was “more desirable solubility and stability characteristics”.
On to “^25Pro^26Val^28,29 Pro-h-amylin (KCNTATCATQRLANFLVHSSNNFGPVLPPTNVGSNTY)”, for which the “solubility and stability characteristics” value in data set [8] is “more desirable solubility and stability characteristics”.
Take “^28Pro-h-amylin (KCNTATCATQRLANFLVHSSNNFGAILPSTNVGSNTY)”: the “amylin activity in vivo” value in data set [7] was “show amylin activity in vivo”.
Take “des-^1Lys-h-amylin (CNTATCATQRLANFLVHSSNNFGAILSSTNVGSNTY)”: in data set [7], the “amylin activity in vivo” value is reported as “show amylin activity in vivo”.
“des-^1Lys^18Arg^25,28Pro-h-amylin (CNTATCATQRLANFLVHRSNNFGPILPSTNVGSNTY)”: in data set [7], the “amylin activity in vivo” value is “show amylin activity in vivo”.
In the case of metreleptin, in data set [2] (12-20 weeks, FIG. 24), the “weight reduction effect toward the end of the study (late rate, in words)” value is reported as “approached a late rate of zero”.
